# Test results taken from patent publication US7855228B2, “Antibiotics targeting MreB” (The Board of Trustees of the Leland Stamford Junior …, priority 2005, dated 2010).
# Entries after “also recorded” stand apart in the source; their conditions may differ. Like-named read-outs stand apart in the source and are kept apart here.
# Legend:
# E. coli MG1655 = assay: Determination of minimum inhibitory concentration (MIC); type: cell-based; details: Escherichia coli, read-out: MIC E. coli
# Summary of the method: (§1)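 Two-fold serial agar dilution on L agar and also on Mueller Hinton agar (pH 7.3); 10 µl of stationary-phase culture diluted in 0.85% NaCl to 10^6 cells/ml spotted per plate. MIC taken as lowest concentration inhibiting growth.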
# [1] = test system: Caulobacter chromosomal loci (origin, origin-distal loci); assay: Chromosome segregation of FROS-labeled loci; type: cell-based, Caulobacter crescentus
# Text: A22 Treatment Blocks Chromosome Segregation. Having established that A22 targets MreB and rapidly disrupts its localization, we used A22 to assess the acute role of MreB in chromosome segregation. To this end we took advantage of strains previously generated in our group that use the fluorescent repressor-operator system (FROS) to simultaneously label two specific chromosomal loci in the same living cell. This system uses fusions of two DNA binding proteins, the lac repressor (LacI) and the Tet repressor (tetR), to CFP and YFP, respectively. Two arrays, each containing multiple tandem repeats of either the LacI or TetR binding sites, are integrated into different chromosomal loci. Each fusion protein clusters at its respective array, causing the cellular address of that array to fluoresce in a detectable fashion.
# Synchronized swarmer cells with lac arrays at the origin locus and tet arrays at the midcell-positioned CC2943 locus (FIG. 5A) were incubated with 10 μg/ml A22. After varying periods of time in the presence of A22, the cellular positions of the origin and CC2943 were examined by fluorescence microscopy. The cultures continued to increase in cell mass, as measured by an increase in optical density, but cell division was blocked. […] This effect was reversible, since upon washing out the A22 drug, the origins were rapidly and normally segregated.
# Treatment of swarmer cells with A22 before the origins have segregated blocks the movement of chromosomal loci. […]
# Though origin-distal loci can separate in the presence of A22, MreB could still partially contribute to their cellular positioning and rate of movement across the cell. Technical considerations prevent the quantitative analysis of locus movement in doubly labeled cells. Thus, to quantitatively assess the role of MreB in origin-distal locus segregation, we examined two singly labeled strains, one with CC0786 marked at 860 kb to the right of the origin, and one with CC3192 marked at 576 kb to the left of the origin. […] The timelapses were analyzed using automated software that provides the absolute position of each locus in each cell. […]
# Microscopy and Timelapse Imaging. […] The rates of origin-distal locus segregation were determined by inducing PxyI:lacI:cfp expression with 0.03% xylose for 75 min, isolating swarmer cells, and growing the swarmer cells in M2G liquid medium for 50 min. After 50 min, 10 μg/ml of A22 was added to these liquid cultures, they were mounted onto 1% M2G agarose pads containing 10 μg/ml A22, and a phase and CFP fluorescence image was captured every 2 min for 60 min. The images were analyzed by previously described software to determine the average position and rate of movement of the observed foci.
# Caulobacter [2] = assay: Caulobacter morphology (DIC images); type: cell-based, Caulobacter crescentus
# Text: Consistent with previous observations in E. coli (Iwai et al., 2002), A22 caused a dose-dependent alteration of Caulobacter morphology, transforming normal, crescent-shaped cells into rounded, lemon-shaped cells. The progression of cell shape deformation by A22 treatment was qualitatively similar to that caused by mreB depletion, though the A22 effect was more rapid (FIGS. […]). […] For example, A22 could disrupt the localization of new cell wall synthesis but have no effect on the existing cell wall, such that without additional growth and wall synthesis A22's effects cannot be perceived. A dependence on cell growth could also explain why A22's effect on morphology takes several hours to manifest.
# Microscopy and Timelapse Imaging. All experiments other than the A22 flow-cell analysis were performed by mounting the samples on 1% agarose pads as described, with the appropriate concentration of A22 added to the agarose. The rates of origin-distal locus segregation were determined by inducing PxyI:lacI:cfp expression with 0.03% xylose for 75 min, isolating swarmer cells, and growing the swarmer cells in M2G liquid medium for 50 min. After 50 min, 10 μg/ml of A22 was added to these liquid cultures, they were mounted onto 1% M2G agarose pads containing 10 μg/ml A22, and a phase and CFP fluorescence image was captured every 2 min for 60 min. The images were analyzed by previously described software to determine the average position and rate of movement of the observed foci.
# E. coli JA221, JST975 = assay: Cell shapes of A22-resistant mutant JA221 and parent JST975; type: cell-based; details: 10 μg/ml A22
# Procedure: FIG. 9. Effects of A22 and mecillinam on cell shapes of the A22-resistant mutant JA221. Exponentially growing cells of the A22-resistant mutant strain JA221 and the parent strain JST975 were treated with 1 μg/ml mecillinam or 10 μg/ml A22 for 2 h at 37° C. Differential interference contrast microphotographs are shown.
# After prolonged (9 days) incubation of the JST975 assay plates, several isolated colonies that grew up within the clear growth inhibitory zones were purified on L plates and their A22-sensitivity was examined.
# Caulobacter [3] = assay: Colony formation assay; type: cell-based, Caulobacter crescentus
# Text: To assess the impact of A22 on cell division and survival, we examined the effect of A22 on colony formation.
# P. putida NBRC14164 = assay: Determination of minimum inhibitory concentration (MIC); type: cell-based, Pseudomonas putida; details: Pseudomonas putida, read-out: MIC P. putida
# Summary of the method: as §1
compound,measurement,setting,value
"N=C(N)SCc1ccc(Cl)c(Cl)c1 [Compound 1, S-(3,4-dichlorobenzyl)isothiourea]",MIC,"E. coli MG1655; MG1655, Example 2, methods as in Example 1",3.13 mg/L
same,MIC,"E. coli MG1655; MG1655, Table 1, E. coli MG1655",3.13 mg/L
same,Origin segregation in cells with T158A A22-resistant mreB allele,[1]; 10 μg/ml,successfully segregated
same,Locus position and rate of segregation of CC0786 and CC3192,"[1]; 10 μg/ml added after 50 min, timelapse 60 min",unaffected
same,Foci of origin and CC2943 loci in swarmer cells,"[1]; 10 μg/ml added to synchronized swarmer cells, 30-180 min",only one focus for each locus
same,"Separation of origin-distal loci (CC2943, CC3300, CC3656, CC0091)","[1]; A22 added after origin segregation (30 min), listed as A22",proceeded to replicate and separate their CC2943 locus into two foci; also recorded: duplicated and separated in the presence of A22
same,Caulobacter growth and cell shape,Caulobacter [2]; 100 μg/ml,completely blocked growth but did not cause Caulobacter to round up
same,Caulobacter growth and cell shape,"Caulobacter [2]; 0.1, 1, and 10 μg/ml",both slowed cell growth and altered cell shape
same,Cell shape of parent strain JST975,"E. coli JA221, JST975",formed spherical cells
same,Cell shape of resistant mutant JA221,"E. coli JA221, JST975",grew as rods
same,Colony formation (CFU),Caulobacter [3]; 0.1 μg/ml,un-perturbed
same,Colony formation (CFU),Caulobacter [3]; 1 μg/ml,partially slowed colony formation
same,Colony formation (CFU),Caulobacter [3]; 10 μg/ml and higher,completely halted the increase in CFU
same,MIC,"P. putida NBRC14164; NBRC14164, Example 2, methods as in Example 1",100 mg/L
same,MIC,"P. putida NBRC14164; NBRC14164, Table 1, NBRC14164",100 mg/L
